For two molecules, IC50 results are on record in PMC10210181 (ACS Omega, 2023).

This test has as its target S. aureus DNA gyrase (Staphylococcus aureus, UniProt P0A0K8+P20831). Briefly: DNA gyrase supercoiling assay, purified gyrase and relaxed plasmid DNA kit. The test is classed as biochemical.

S. aureus DNA gyrase, sequence (P20831 whole entry): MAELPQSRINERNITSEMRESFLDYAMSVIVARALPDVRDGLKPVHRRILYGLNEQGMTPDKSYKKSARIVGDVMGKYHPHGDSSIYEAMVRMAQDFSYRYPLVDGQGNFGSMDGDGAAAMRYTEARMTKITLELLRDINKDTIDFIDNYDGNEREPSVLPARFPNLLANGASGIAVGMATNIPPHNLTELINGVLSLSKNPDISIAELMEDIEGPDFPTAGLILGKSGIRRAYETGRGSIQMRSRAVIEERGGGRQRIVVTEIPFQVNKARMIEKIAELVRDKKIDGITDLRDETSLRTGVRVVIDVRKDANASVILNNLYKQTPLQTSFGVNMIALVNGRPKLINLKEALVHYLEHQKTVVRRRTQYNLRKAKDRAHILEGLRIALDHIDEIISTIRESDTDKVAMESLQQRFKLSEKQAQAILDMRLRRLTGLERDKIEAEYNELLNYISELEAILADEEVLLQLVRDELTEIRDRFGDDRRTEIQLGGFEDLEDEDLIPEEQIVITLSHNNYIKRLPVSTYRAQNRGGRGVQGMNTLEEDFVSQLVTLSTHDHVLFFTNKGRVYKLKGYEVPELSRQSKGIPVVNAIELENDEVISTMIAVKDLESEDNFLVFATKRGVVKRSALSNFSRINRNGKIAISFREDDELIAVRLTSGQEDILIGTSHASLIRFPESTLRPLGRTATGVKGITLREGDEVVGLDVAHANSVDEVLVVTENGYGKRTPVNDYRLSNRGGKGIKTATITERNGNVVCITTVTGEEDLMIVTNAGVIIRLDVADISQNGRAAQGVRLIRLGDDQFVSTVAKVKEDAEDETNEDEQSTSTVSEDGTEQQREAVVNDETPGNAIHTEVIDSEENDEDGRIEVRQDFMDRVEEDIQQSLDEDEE
S. aureus DNA gyrase, sequence (P0A0K8 2-644): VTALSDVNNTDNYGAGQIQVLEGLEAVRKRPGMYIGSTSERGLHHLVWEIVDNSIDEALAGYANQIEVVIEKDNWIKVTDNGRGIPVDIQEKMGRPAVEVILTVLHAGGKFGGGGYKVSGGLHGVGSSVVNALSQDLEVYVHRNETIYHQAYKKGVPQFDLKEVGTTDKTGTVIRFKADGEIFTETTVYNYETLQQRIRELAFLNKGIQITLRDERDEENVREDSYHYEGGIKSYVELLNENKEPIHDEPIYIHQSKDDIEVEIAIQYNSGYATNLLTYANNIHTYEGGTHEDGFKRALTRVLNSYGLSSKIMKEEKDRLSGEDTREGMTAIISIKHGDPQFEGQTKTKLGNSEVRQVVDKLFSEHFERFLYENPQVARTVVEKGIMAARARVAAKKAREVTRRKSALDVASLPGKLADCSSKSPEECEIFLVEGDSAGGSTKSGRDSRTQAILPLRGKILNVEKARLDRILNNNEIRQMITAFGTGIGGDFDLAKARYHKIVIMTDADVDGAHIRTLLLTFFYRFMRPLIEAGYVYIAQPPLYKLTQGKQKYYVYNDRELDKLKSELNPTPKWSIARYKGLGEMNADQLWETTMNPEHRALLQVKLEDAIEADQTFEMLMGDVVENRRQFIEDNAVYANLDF

As for `COc1ccc(NC(=O)CNNC(=O)c2cc(-c3ccc(Br)cc3)nc3ccccc23)cc1` [6b, 2-(2-(2-(4-Bromophenyl)quinoline-4-carbonyl)hydrazinyl)-N-(4-methoxyphenyl)acetamide], the half-inhibitory concentration (IC50) stood at 33.6 µM.
Turning to `N=C1CC(N)=NN1C(=O)c1cc(-c2ccc(Br)cc2)nc2ccccc12` [compound 10, (3-Amino-5-imino-4,5-dihydro-1H-pyrazol-1-yl)(2-(4-bromophenyl)quinolin-4-yl)methanone], the 50% inhibitory concentration (IC50) turned out to be 8.45 µM.
